Data set [1] concerns the target T1, 72 kDa type IV collagenase (Homo sapiens, UniProt P08253). The experiment in a line: Inhibition of recombinant MMP-2 (unknown origin).
The target in the next data set is Stromelysin-2 (Homo sapiens, UniProt P09238). Briefly: Inhibition of MMP-10 (unknown origin) using 5-FAM-Pro-Leu-OH as substrate by fluorimetric assay.
The target of data set [2] is T1, 72 kDa type IV collagenase. Briefly: Inhibition of human MMP-2 using 7-methoxycoumarin-4-yl)acetyl-Pro-Leu-Gly-Leu-(N3-(2,4-dinitrophenyl)-L-2,3-diaminopropionyl)-Ala-Arg-NH2 as substrate preincubated for 5 mins followed by enzyme addition and measured after 15 mins by fluorescence based analysis.
The target in data set [3] is Matrix metalloproteinase-9 (Homo sapiens, UniProt P14780). The experiment in a line: Inhibition of human MMP-9 using 7-methoxycoumarin-4-yl)acetyl-Pro-Leu-Gly-Leu-(N3-(2,4-dinitrophenyl)-L-2,3-diaminopropionyl)-Ala-Arg-NH2 as substrate preincubated for 5 mins followed by enzyme addition and measured after 15 mins by fluorescence based analysis.
In data set [4] the target is Macrophage metalloelastase (Homo sapiens, UniProt P39900). The experiment in a line: Inhibition of human MMP-12 using 7-methoxycoumarin-4-yl)acetyl-Pro-Leu-Gly-Leu-(N3-(2,4-dinitrophenyl)-L-2,3-diaminopropionyl)-Ala-Arg-NH2 as substrate preincubated for 5 mins followed by enzyme addition and measured after 15 mins by fluorescence based analysis.
Data set [5] can be described thus: Inhibition of UV light -induced MMP-1 expression in HDF-N cells at 1 ppm by ELISA relative to control. Format: functional. The conditions noted are these: Homo sapiens. A general note: In an ELISA, binding on a coated surface is turned into a signal by an enzyme label.
The nature of data set [6]: Inhibition of UV light-induced MMP-1 expression in HDF-N cells at 5 ppm by ELISA relative to control. In kind it is functional. The following applies: Homo sapiens.
Data set [7] is described as follows: Inhibition of UV light-induced MMP-1 expression in HDF-N cells at 10 ppm by ELISA relative to control. In kind it is functional. The following applies: Homo sapiens.
A further data set concerns the target T2, Interstitial collagenase (Homo sapiens, UniProt P03956).
T2 sequence (P03956 whole entry): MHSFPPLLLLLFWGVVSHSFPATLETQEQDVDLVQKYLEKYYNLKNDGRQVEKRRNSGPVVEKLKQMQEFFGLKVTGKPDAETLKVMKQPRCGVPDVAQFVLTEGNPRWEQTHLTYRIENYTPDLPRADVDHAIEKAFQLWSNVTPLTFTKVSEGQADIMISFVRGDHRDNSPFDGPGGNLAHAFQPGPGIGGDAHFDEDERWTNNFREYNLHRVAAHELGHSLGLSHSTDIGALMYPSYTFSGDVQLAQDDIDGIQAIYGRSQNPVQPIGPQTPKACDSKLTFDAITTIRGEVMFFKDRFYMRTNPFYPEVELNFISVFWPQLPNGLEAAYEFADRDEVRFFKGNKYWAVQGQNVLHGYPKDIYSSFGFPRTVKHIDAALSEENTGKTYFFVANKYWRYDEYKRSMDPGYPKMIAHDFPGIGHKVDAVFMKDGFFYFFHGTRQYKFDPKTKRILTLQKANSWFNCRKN
The experiment in a line: Inhibition of MMP-1 (unknown origin).

A short description of data set [8]: Inhibition of MMP-1 mRNA expression in UVB-irradiated human Hs68 cells at 10 uM relative to control. In kind it is functional. The following applies: Hs68, light or radiation study.
Data set [9] is described as follows: Inhibition of MMP-2 mRNA expression in UVB-irradiated human Hs68 cells at 10 uM relative to control. Format: functional. The conditions noted are these: Hs68, light or radiation study.
Data set [10] can be described thus: Downregulation of UVB irradiation-induced MMP-1 expression in HDF cells at 20 uM measured after 24 hrs by Western blot analysis relative to control. In kind it is functional, Homo sapiens, NHDF. For orientation: A western blot detects proteins with antibodies after separation by electrophoresis.
A short description of data set [11]: Downregulation of UVB irradiation-induced MMP-3 expression in HDF cells at 20 uM measured after 24 hrs by Western blot analysis relative to control. In kind it is functional, Homo sapiens, NHDF.
Data set [12] is described as follows: Cytotoxicity against human CCD-986Sk cells assessed as cell viability by MTT assay relative to control. In kind it is toxicity, cell-based. The conditions noted are these: read-out: Activity. For orientation: Tetrazolium assays rely on reduction of a dye to a coloured formazan, in cell work by metabolically active cells.
Data set [13] in a line: Inhibition of UVB-induced MMP-9 expression in SKH-1 hairless mouse skin at 1 nM administered topically for 1 hr followed by UVB irradiation for 15 weeks by densitometry based gelatin zymography analysis relative to control. Format: functional. The conditions noted are these: SKH-1, Skin of body, light or radiation study, topical, time 2521 hrs.
Data set [14] in a line: Inhibition of UVB-induced MMP-9 expression in SKH-1 hairless mouse skin at 5 nM administered topically for 1 hr followed by UVB irradiation for 15 weeks by densitometry based gelatin zymography analysis relative to control. In kind it is functional. The following applies: SKH-1, Skin of body, light or radiation study, topical, time 2521 hrs.

The record followed here is ChEMBL document CHEMBL5512611, “Discovery of matrix metalloproteinase inhibitors as anti-skin photoaging agents” (Eur J Med Chem, 2024).

Stromelysin-2, sequence (P09238 whole entry): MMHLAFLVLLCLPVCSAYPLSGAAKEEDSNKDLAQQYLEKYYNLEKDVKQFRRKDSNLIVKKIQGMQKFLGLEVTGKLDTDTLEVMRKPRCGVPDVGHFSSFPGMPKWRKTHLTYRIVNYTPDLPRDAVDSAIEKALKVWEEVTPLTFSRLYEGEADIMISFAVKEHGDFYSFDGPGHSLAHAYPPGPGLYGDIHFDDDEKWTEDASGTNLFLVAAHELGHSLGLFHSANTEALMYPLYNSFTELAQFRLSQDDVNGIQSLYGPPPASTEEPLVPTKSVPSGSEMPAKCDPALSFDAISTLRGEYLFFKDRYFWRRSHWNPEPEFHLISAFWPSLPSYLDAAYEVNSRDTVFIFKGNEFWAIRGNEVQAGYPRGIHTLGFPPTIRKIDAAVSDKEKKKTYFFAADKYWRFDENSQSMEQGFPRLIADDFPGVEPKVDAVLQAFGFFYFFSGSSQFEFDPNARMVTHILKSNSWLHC
T1 sequence (P08253 whole entry): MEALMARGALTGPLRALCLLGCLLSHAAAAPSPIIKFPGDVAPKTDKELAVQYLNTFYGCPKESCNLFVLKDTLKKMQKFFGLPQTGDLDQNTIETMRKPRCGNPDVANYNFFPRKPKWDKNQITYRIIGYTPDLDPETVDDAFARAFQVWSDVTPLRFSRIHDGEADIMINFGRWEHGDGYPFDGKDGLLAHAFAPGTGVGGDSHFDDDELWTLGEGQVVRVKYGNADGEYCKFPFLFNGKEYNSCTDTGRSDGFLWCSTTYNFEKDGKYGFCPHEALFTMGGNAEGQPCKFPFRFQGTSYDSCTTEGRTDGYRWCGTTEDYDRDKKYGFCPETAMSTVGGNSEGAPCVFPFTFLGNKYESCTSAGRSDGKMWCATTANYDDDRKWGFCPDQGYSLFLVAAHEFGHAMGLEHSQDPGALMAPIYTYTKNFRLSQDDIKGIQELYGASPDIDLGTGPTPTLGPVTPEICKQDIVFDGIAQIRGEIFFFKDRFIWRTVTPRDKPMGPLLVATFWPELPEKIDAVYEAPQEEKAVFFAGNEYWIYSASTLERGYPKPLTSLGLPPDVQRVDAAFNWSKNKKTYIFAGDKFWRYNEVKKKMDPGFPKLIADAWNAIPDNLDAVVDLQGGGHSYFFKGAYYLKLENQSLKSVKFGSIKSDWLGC
Matrix metalloproteinase-9, sequence (P14780 whole entry): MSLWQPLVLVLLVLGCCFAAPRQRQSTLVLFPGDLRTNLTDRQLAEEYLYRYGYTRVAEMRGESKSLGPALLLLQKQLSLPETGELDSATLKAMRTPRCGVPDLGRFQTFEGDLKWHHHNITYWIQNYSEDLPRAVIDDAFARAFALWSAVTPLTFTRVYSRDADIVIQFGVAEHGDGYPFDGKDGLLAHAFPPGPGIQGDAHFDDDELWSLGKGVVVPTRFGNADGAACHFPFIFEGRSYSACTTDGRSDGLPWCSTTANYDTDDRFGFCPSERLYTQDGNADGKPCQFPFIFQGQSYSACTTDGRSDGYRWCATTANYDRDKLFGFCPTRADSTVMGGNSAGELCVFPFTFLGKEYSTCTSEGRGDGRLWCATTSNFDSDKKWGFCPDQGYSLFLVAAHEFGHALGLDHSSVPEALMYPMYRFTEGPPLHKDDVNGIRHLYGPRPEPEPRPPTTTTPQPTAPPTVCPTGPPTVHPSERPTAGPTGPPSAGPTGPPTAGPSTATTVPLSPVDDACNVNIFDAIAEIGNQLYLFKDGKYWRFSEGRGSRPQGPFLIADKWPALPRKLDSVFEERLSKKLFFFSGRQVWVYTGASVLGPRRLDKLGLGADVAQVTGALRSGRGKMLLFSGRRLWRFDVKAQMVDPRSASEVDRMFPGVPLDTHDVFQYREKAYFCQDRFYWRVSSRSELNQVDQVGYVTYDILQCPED
Macrophage metalloelastase, sequence (P39900 whole entry): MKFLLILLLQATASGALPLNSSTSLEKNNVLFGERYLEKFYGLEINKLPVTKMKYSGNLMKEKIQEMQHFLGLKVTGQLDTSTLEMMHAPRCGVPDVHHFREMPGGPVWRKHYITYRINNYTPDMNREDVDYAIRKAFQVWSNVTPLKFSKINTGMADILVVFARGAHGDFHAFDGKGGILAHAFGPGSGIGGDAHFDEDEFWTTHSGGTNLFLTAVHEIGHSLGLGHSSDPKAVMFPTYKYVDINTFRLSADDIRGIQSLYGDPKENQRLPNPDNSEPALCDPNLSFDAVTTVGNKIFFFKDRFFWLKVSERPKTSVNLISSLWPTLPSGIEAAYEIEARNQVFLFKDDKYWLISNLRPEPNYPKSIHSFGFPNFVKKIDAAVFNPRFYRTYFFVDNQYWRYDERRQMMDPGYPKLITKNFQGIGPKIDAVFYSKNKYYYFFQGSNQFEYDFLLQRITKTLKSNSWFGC

In the case of `COc1ccc(S(=O)(=O)N(CC(=O)NO)CC(C)C)cc1`, in data set [1], the half-maximal inhibitory concentration (IC50) stood at 70 nM.
Turning to `CC(=O)N1C2NC(C)=CC(=O)N2C(c2ccc(Br)cc2)N1C(C)=O` (configuration not stated), the IC50 at Stromelysin-2 is 24 nM.
`C[C@H](C[C@H](CO)NC(=O)c1ccc(Oc2ccccc2)cc1)C(=O)NO`: the IC50 in data set [2] was 0.65 nM; in data set [3], 0.8 nM; in data set [4], 3.5 nM.
Turning to `COc1ccc(/C=N/Nc2nc(C)cc(=O)[nH]2)cc1`, half-maximal inhibition on Stromelysin-2 (IC50) was put at 53 nM.
As for `O=C1c2cc(O)cc(O)c2CN1c1ccc(O)cc1`, the inhibition at 1 µg/mL in data set [5] was 33.9%. Also, in data set [6], the inhibition at 5 µg/mL was 27.6%. Also, the inhibition at 10 µg/mL in data set [7] came to 27.5%.
Turning to `O=C1OC[C@H]2OC(O)[C@@H]3OC(=O)c4cc(O)c(O)c(O)c4-c4c(cc(O)c(O)c4O)C(=O)O[C@@H]3[C@@H]2OC(=O)c2cc(O)c(O)c(O)c2-c2c1cc(O)c(O)c2O` (some centres not stated), at Interstitial collagenase, half-maximal inhibition (IC50) was put at 9750 nM.
At Stromelysin-2, `CC(=O)N1c2nc(=O)cc(C)n2C(c2ccc(Br)cc2)N1C(C)=O` (configuration not stated) returned an IC50 of 1630 nM.
Regarding `C[C@H](C[C@H](COC(=O)CCC(=O)O)NC(=O)c1ccc(Oc2ccccc2)cc1)C(=O)NO`, the IC50 stood at 1.1 nM in data set [2], 2.8 nM in data set [3] and 2.6 nM in data set [4].
For the molecule `COc1cc2ccnc3c2c(c1OC)NC=C3` [AAPTAMINE], the values for the inhibition at 10 µM in [8] and in data set [9] were 53.6% and 87.4%, respectively.
On to `Oc1ccc2c(c1)OC[C@]1(O)Cc3cc(O)c(O)cc3[C@H]21` [BRAZILIN], for which the Activity in data set [10] and in [11] was 50% in each case.
`O=C(O[C@@H]1Cc2c(O)cc(O)cc2O[C@@H]1c1cc(O)c(O)c(O)c1)c1cc(O)c(O)c(O)c1` [EPIGALOCATECHIN GALLATE] had an IC50 against Interstitial collagenase of 7900 nM.
In the case of `COc1cc(/C=C/C(=O)O)ccc1O` [FERULATE], in [12], the viability is above 80%.
In data set [13], `O=c1c(O)c(-c2cc(O)c(O)c(O)c2)oc2cc(O)cc(O)c12` [MYRICETIN] showed an inhibition in vivo at 0.001 µM of 55%. Moreover, the inhibition in vivo at 0.005 µM in data set [14] worked out at 80%.

Usually IC50 stands for the concentration needed to halve the response being measured. A word on the inhibition: it is the change of the read-out against control, counted positive when it falls. As usually defined, the inhibition in vivo is the relative decrease from the control value, in per cent. Low readings indicate little suppression, high ones strong suppression.
